Measured values as given in ChEMBL document CHEMBL5625205, “3-Methoxy-2-phenylimidazo[1,2-b]pyridazines highly active against Mycobacterium tuberculosis and Mycobacterium marinum” (Eur J Med Chem, 2023).
≈ marks a conversion by molar mass, not a printed value. Calls of active or inactive are those of the source. The calls are words filed in the database; no cut-off is given here.

Experiments:
[1] = test system: Mycobacterium tuberculosis; assay: Antimycobacterial activity against Mycobacterium tuberculosis H37Ra assessed as inhibition of bacterial growth measured for 5 days by luminometer; type: functional; conditions: 120 h, time 5 day
Mycobacterium marinum = assay: Antimycobacterial activity against Mycobacterium marinum assessed as inhibition of bacterial growth measured for 5 days by luminometer; type: functional; conditions: 120 h, time 5 day
[2] = Metabolic stability in mouse liver microsomes assessed as half life incubated for 60 mins in presence of NADPH; type: ADME, Microsome
[3] = Kinetic solubility of compound in DMSO at pH 6.5 incubated for 30 mins by laser nephelometry; type: physicochemical; conditions: read-out: Kinetic_solubility
[4] = test system: Mycobacterium tuberculosis; assay: Antimycobacterial activity against Mycobacterium tuberculosis H37Ra infected in mouse assessed as reduction in relative light unit in lung at 30 to 300 mg/kg,po administrated once daily for 5 days; type: functional, organism-based; conditions: dose 30-300 mg/kg, time 5.0 day
[5] = Metabolic stability in mouse liver microsomes assessed as intrinsic clearance incubated for 60 mins in presence of NADPH; type: ADME, Microsome; conditions: read-out: CLH
[6] = Octanol-water distribution coefficient, logD of the compound at pH 7.4 by HPLC analysis; type: physicochemical
[7] = Kinetic solubility of compound in DMSO at pH 2 incubated for 30 mins by laser nephelometry; type: physicochemical; conditions: read-out: Kinetic_solubility

SMILES | MIC90 [1] | MIC90 (Mycobacterium marinum) | further results
COc1cccc(CNc2ccc3nc(-c4cccc(C(F)(F)F)c4)c(OC)n3n2)c1 | 23.3 µM (≈ 9.98 µg/mL) | 9.34 µM (≈ 4 µg/mL) | –
COc1c(-c2ccccc2)nc2ccc(Sc3ccccc3)nn12 | 150 µM (≈ 50 µg/mL) | – | –
COc1c(-c2ccccc2)nc2ccc(Cl)nn12 | 385 µM (≈ 100 µg/mL) | – | –
c1ccc(CSc2ccc3nc(-c4ccccc4)cn3n2)cc1 | > 315 µM | > 315 µM | –
Ic1c(-c2ccccc2)nc2ccc(OCc3ccccc3)nn12 | > 230 µM | > 230 µM | –
COc1ccc(CSc2ccc3nc(-c4ccc(Cl)c(Cl)c4)c(OC)n3n2)cc1 | > 220 µM | > 220 µM | –
COc1cccc(CSc2ccc3nc(-c4ccc(F)cc4)cn3n2)c1 | 27.4 µM (≈ 10 µg/mL) | 2.74 µM (≈ 1 µg/mL) | –
COc1c(-c2ccccc2)nc2ccc(N(C)Cc3ccccc3)nn12 | 2.9 µM (≈ 0.999 µg/mL) | 1.45 µM (≈ 0.499 µg/mL) | –
COc1c(-c2ccccc2)nc2ccc(SCc3ccsc3)nn12 | 0.7 µM (≈ 0.247 µg/mL) | 1.41 µM (≈ 0.498 µg/mL) | –
Oc1ccccc1-c1nc2ccc(SCc3ccccc3)nn2c1Br | 243 µM (≈ 100 µg/mL) | 243 µM (≈ 100 µg/mL) | –
COc1c(-c2cccc([N+](=O)[O-])c2)nc2ccc(N(C)Cc3ccccc3)nn12 | > 250 µM | > 250 µM | –
COc1cccc(CS(=O)(=O)c2ccc3nc(-c4ccc(F)cc4F)c(OC)n3n2)c1 | 225 µM (≈ 100 µg/mL) | 225 µM (≈ 100 µg/mL) | –
COc1c(Cc2ccccc2)nc2ccc(SCc3cccc(C)c3)nn12 | 87.9 µM (≈ 33 µg/mL) | 26.6 µM (≈ 9.99 µg/mL) | –
COc1c(Cc2ccccc2)nc2ccc(SCc3cccc([N+](=O)[O-])c3)nn12 | > 245 µM | 24.6 µM (≈ 10 µg/mL) | –
O=c1oc2ccccc2c2nc3ccc(SCc4ccccc4)nn3c12 | 278 µM (≈ 99.9 µg/mL) | 278 µM (≈ 99.9 µg/mL) | –
COc1cccc(CNc2ccc3nc(-c4ccc(C)cc4)c(OC)n3n2)c1 | 13.4 µM (≈ 5.02 µg/mL) | 13.4 µM (≈ 5.02 µg/mL) | –
COCCOc1c(-c2ccccc2)nc2ccc(SCc3cccc(OC)c3)nn12 | 29.7 µM (≈ 12.5 µg/mL) | 119 µM (≈ 50.2 µg/mL) | –
COc1cccc(CSc2ccc3nc(-c4ccc(F)cc4F)c(CN4CCOCC4)n3n2)c1 | 207 µM (≈ 99.9 µg/mL) | 207 µM (≈ 99.9 µg/mL) | –
COc1c(-c2ccccc2)nc2ccc(SCc3ccccc3Cl)nn12 | > 260 µM | – | –

SMILES | MIC90 [1] | MIC90 (Mycobacterium marinum) | further results
COc1c(-c2ccccc2)nc2ccc(SCc3ccccn3)nn12 | 5.74 µM (≈ 2 µg/mL) | 2.87 µM (≈ 1 µg/mL) | –
COc1c(-c2ccc(F)cc2F)nc2ccc(N(C)Cc3ccccc3)nn12 | 0.64 µM (≈ 0.243 µg/mL) | 0.64 µM (≈ 0.243 µg/mL) | half-life [2]: 8 min; solubility kinetic at 0.5 h [3]: 1.6 µg/mL (≈ 4.21 µM); Activity [4]: inactive; microsomal CLint [5]: 215 µL/min/mg; logD [6]: 4.6; solubility kinetic at 0.5 h [7]: 25 µg/mL (≈ 65.7 µM)
COc1cccc(CSc2ccc3nc(-c4ccc(F)cc4)c(OC)n3n2)c1 | 0.63 µM (≈ 0.249 µg/mL) | 0.63 µM (≈ 0.249 µg/mL) | half-life [2]: < 2 min; solubility kinetic at 0.5 h [3]: < 1.6 µg/mL; Activity [4]: inactive; microsomal CLint [5]: > 866 µL/min/mg; logD [6]: 4.9; solubility kinetic at 0.5 h [7]: 1.6 µg/mL (≈ 4.05 µM)
COc1cccc(CSc2ccc3nc(-c4ccc(F)cc4F)cn3n2)c1 | 261 µM (≈ 100 µg/mL) | 261 µM (≈ 100 µg/mL) | –
c1ccc(COc2ccc3nc(-c4ccccc4)cn3n2)cc1 | 332 µM (≈ 100 µg/mL) | > 330 µM | –
Brc1c(-c2ccccc2)nc2ccc(OCc3ccccc3)nn12 | > 260 µM | > 260 µM | –
COc1cccc(CSc2ccc3nc(-c4ccc(Cl)cc4)c(OC)n3n2)c1 | 9.71 µM (≈ 4 µg/mL) | 3.03 µM (≈ 1.25 µg/mL) | –
COc1cccc(CSc2ccc3nc(-c4ccc(F)cc4)c(CN(C)C)n3n2)c1 | 23.7 µM (≈ 10 µg/mL) | 47.3 µM (≈ 20 µg/mL) | –
COc1c(-c2ccc(F)cc2F)nc2ccc(SCc3ccsc3)nn12 | 10.3 µM (≈ 4.01 µg/mL) | 2.57 µM (≈ 1 µg/mL) | –
COc1c(-c2ccc(F)cc2)nc2ccc(SCc3ccsc3)nn12 | 26.9 µM (≈ 9.99 µg/mL) | 5.38 µM (≈ 2 µg/mL) | –
COc1cccc(CSc2ccc3nc(-c4ccc(Br)cc4)c(OC)n3n2)c1 | 11 µM (≈ 5 µg/mL) | 11 µM (≈ 5.02 µg/mL) | –
COc1cccc(CSc2ccc3nc(-c4ccc(Cl)c(Cl)c4)c(OC)n3n2)c1 | > 220 µM | > 220 µM | –
COc1c(-c2ccccc2)nc2ccc(SCc3cc(C)on3)nn12 | 284 µM (≈ 100 µg/mL) | 284 µM (≈ 100 µg/mL) | –
CCOc1c(-c2ccccc2)nc2ccc(SCc3ccccc3)nn12 | 69.2 µM (≈ 25 µg/mL) | 69.2 µM (≈ 25 µg/mL) | –
CN(Cc1ccccc1)c1ccc2nc(-c3ccc(Cl)cc3)c(O)n2n1 | 274 µM (≈ 100 µg/mL) | > 274 µM | –
COc1cccc(CNc2ccc3nc(-c4ccccc4F)c(OC)n3n2)c1 | 6.61 µM (≈ 2.5 µg/mL) | 6.61 µM (≈ 2.5 µg/mL) | –
CN(Cc1ccccc1)c1ccc2nc(-c3ccccc3F)c(O)n2n1 | 144 µM (≈ 50.2 µg/mL) | 287 µM (≈ 100 µg/mL) | –
COc1cccc(CNc2ccc3nc(-c4ccc(C(F)(F)F)cc4)c(OC)n3n2)c1 | 11.7 µM (≈ 5.01 µg/mL) | 23.3 µM (≈ 9.98 µg/mL) | –
COc1cccc(CNc2ccc3nc(-c4cccc(F)c4)c(OC)n3n2)c1 | 52.9 µM (≈ 20 µg/mL) | 26.4 µM (≈ 9.99 µg/mL) | –
